Measurements from the NIST ThermoML archive (doi:10.1021/je200721d).

Assay: xn = mol fraction of the nth substance listed
Conditions: Liquid, Vibrating tube method

CCCCCCCCCC [decane] + CCCCCC
Conditions | mass density [kg/m3]
362.94 K, 4000 kPa, x2 = 0.4968 | 650.21
362.94 K, 5000 kPa, x2 = 0.4968 | 651.6
362.94 K, 6000 kPa, x2 = 0.4968 | 652.91
362.94 K, 7000 kPa, x2 = 0.4968 | 654.2
362.94 K, 8000 kPa, x2 = 0.4968 | 655.48
362.94 K, 9000 kPa, x2 = 0.4968 | 656.71
362.94 K, 10000 kPa, x2 = 0.4968 | 657.94
362.94 K, 11000 kPa, x2 = 0.4968 | 659.13
362.94 K, 12000 kPa, x2 = 0.4968 | 660.32
362.94 K, 13000 kPa, x2 = 0.4968 | 661.45
362.94 K, 14000 kPa, x2 = 0.4968 | 662.6
362.94 K, 15000 kPa, x2 = 0.4968 | 663.75
362.94 K, 16000 kPa, x2 = 0.4968 | 664.81
362.94 K, 17000 kPa, x2 = 0.4968 | 665.88
362.94 K, 18000 kPa, x2 = 0.4968 | 666.95
362.94 K, 19000 kPa, x2 = 0.4968 | 667.98
362.94 K, 20000 kPa, x2 = 0.4968 | 669.01
362.94 K, 21000 kPa, x2 = 0.4968 | 670.03
362.94 K, 22000 kPa, x2 = 0.4968 | 671.04
362.94 K, 23000 kPa, x2 = 0.4968 | 672.03
362.94 K, 24000 kPa, x2 = 0.4968 | 673
362.94 K, 25000 kPa, x2 = 0.4968 | 673.96
362.95 K, 1000 kPa, x2 = 0.2185 | 664.98
362.95 K, 2000 kPa, x2 = 0.2185 | 666.23
362.95 K, 3000 kPa, x2 = 0.2185 | 667.46
362.95 K, 4000 kPa, x2 = 0.2185 | 668.71
362.95 K, 5000 kPa, x2 = 0.2185 | 669.93
362.95 K, 6000 kPa, x2 = 0.2185 | 671.12
362.95 K, 7000 kPa, x2 = 0.2185 | 672.27
362.95 K, 8000 kPa, x2 = 0.2185 | 673.43
362.95 K, 9000 kPa, x2 = 0.2185 | 674.54
362.95 K, 10000 kPa, x2 = 0.2185 | 675.66
362.95 K, 11000 kPa, x2 = 0.2185 | 676.75
362.95 K, 12000 kPa, x2 = 0.2185 | 677.81
362.95 K, 13000 kPa, x2 = 0.2185 | 678.85
362.95 K, 14000 kPa, x2 = 0.2185 | 679.9
362.95 K, 15000 kPa, x2 = 0.2185 | 680.96
362.95 K, 16000 kPa, x2 = 0.2185 | 681.94
362.95 K, 17000 kPa, x2 = 0.2185 | 682.95
362.95 K, 18000 kPa, x2 = 0.2185 | 683.9
362.95 K, 19000 kPa, x2 = 0.2185 | 684.89
362.95 K, 20000 kPa, x2 = 0.2185 | 685.85
362.95 K, 21000 kPa, x2 = 0.2185 | 686.79
362.95 K, 22000 kPa, x2 = 0.2185 | 687.72
362.95 K, 23000 kPa, x2 = 0.2185 | 688.63
362.95 K, 24000 kPa, x2 = 0.2185 | 689.54
362.95 K, 25000 kPa, x2 = 0.2185 | 690.43
